Key:
HeLa [1] = assay: compound was tested for 50% toxic concentration by visual grading scale of cells after 3 days of drug treatment in HT4-6C cells.; format: functional; settings: Homo sapiens, 72 h, read-out: TC50 (the source's name)
HeLa [2] = assay: Compound was tested for Anti-HIV activity by plaque reduction assay with A018-post virus in HT4-6C human CD4+ […]; format: functional, cell-based
[3] = selectivity index expressed as TC50/EC50; EC50 values are calculated from […] cells infected with HIV-1LAI; format: functional
HeLa [4] = assay: Compound was tested for Anti-HIV activity by plaque reduction assay with wild type HIV-1LAI virus in HT4-6C human CD4+ […]; format: functional, cell-based
[5] = selectivity index = TC50/EC50. The EC50 values are calculated from CEM lymphoblast cells infected with HIV-1LAI virus.; format: functional, CCRF-CEM
[6] = compound was tested for 50% toxic concentration by flow cytometry after propidium iodide staining after 3 days of drug treatment in CEM lymphoblast cells.; settings: human, read-out: TC50
HeLa [7] = assay: Compound was tested for Anti-HIV activity by plaque reduction assay with E89K virus in HT4-6C human CD4+ […]; format: functional, cell-based
[8] = selectivity index expressed as TC50/EC50; EC50 values are calculated from HT4-6C cells infected with HIV-1LAI virus.

## CCCCCCCCCCCCCCCCCCCCOC(=O)P(=O)(O)OC[C@H]1O[C@@H](n2cc(C)c(=O)[nH]c2=O)C[C@@H]1N=[N+]=[N-].N
HeLa [1]
  CC50: 32 µM
HeLa [2]
  EC50: 0.53 µM
[3]
  Selectivity index: 228
HeLa [4]
  EC50: 0.14 µM
[5]
  Selectivity index: 257
[6]
  CC50 at 72 h: 36 µM
HeLa [7]
  EC50: 0.009 µM

## CCCCCCCCCCCCCCCCCCCCCCOC(=O)P(=O)(O)OC[C@H]1O[C@@H](n2cc(C)c(=O)[nH]c2=O)C[C@@H]1N=[N+]=[N-].N
HeLa [1]
  CC50: 320 µM
HeLa [2]
  EC50: 0.77 µM
[3]
  Selectivity index: 1000
HeLa [4]
  EC50: 0.32 µM
[5]
  Selectivity index: 291
[6]
  CC50 at 72 h: 93 µM
HeLa [7]
  EC50: 0.17 µM

## CCCCCCCCCCCCCCCCCCOC(=O)P(=O)(O)OC[C@H]1O[C@@H](n2cc(C)c(=O)[nH]c2=O)C[C@@H]1N=[N+]=[N-].N
[8]
  Selectivity index: 280
HeLa [1]
  CC50: 10 µM
HeLa [2]
  EC50: 0.3 µM
[3]
  Selectivity index: 100
HeLa [4]
  EC50: 0.1 µM
[6]
  CC50 at 72 h: 28 µM
HeLa [7]
  EC50: 0.13 µM

## O=C(O)P(=O)(O)O [FOSCARNET]
[8]
  Selectivity index: 6
HeLa [1]
  CC50: 1000 µM
HeLa [2]
  EC50: 65 µM
[3]
  Selectivity index: >7.5
HeLa [4]
  EC50: 133 µM
[6]
  CC50 at 72 h: 800 µM
HeLa [7]
  EC50: > 1000 µM

## Cc1cn([C@H]2C[C@H](N=[N+]=[N-])[C@@H](CO)O2)c(=O)[nH]c1=O [ZIDOVUDINE]
HeLa [2]
  EC50: 2.9 µM
HeLa [4]
  EC50: 0.013 µM
HeLa [7]
  EC50: 0.009 µM
